Assay results from ChEMBL document CHEMBL3046897, “Synthesis of 3-{4-[4-dimethylamino-6-(4-methyl-2-oxo-2H-chromen-7-yloxy)-[1,3,5]triazin-2-ylamino]-phenyl}-2-phenyl-5-(4-pyridin-2-yl-piperazin-1-ylmethyl)-thiazolidin-4-one and their biological evaluation” (2012).
Values after ≈ are worked out from the molar mass of the structure shown.

How the values were obtained:
Format in all cases: functional
Proteus vulgaris [1] = test: Antibacterial activity against Proteus vulgaris at 100 ug/disk after 24 hr by paper disk diffusion method; settings: read-out: IZ
Aspergillus fumigatus [2] = test: Antifungal activity against Aspergillus fumigatus at 100 ug/disc after 48 hr by paper disk diffusion method; settings: read-out: IZ
Aspergillus clavatus [3] = test: Antifungal activity against Aspergillus clavatus after 48 hr by agar streak dilution method
Staphylococcus aureus [4] = test: Antibacterial activity against Staphylococcus aureus at 100 ug/disc after 24 hr by paper disk diffusion method; settings: read-out: IZ
Staphylococcus aureus [5] = test: Antibacterial activity against Staphylococcus aureus after 24 hr by agar streak dilution method
Bacillus subtilis [6] = test: Antibacterial activity against Bacillus subtilis at 100 ug/disk after 24 hr by paper disk diffusion method; settings: read-out: IZ
Shigella flexneri [7] = test: Antibacterial activity against Shigella flexneri at 100 ug/disc after 24 hr by paper disk diffusion method; settings: read-out: IZ
Shigella flexneri [8] = test: Antibacterial activity against Shigella flexneri after 24 hr by agar streak dilution method
Candida albicans [9] = test: Antifungal activity against Candida albicans at 100 ug/disk after 48 hr by paper disk diffusion method; settings: read-out: IZ
Pseudomonas aeruginosa [10] = test: Antibacterial activity against Pseudomonas aeruginosa after 24 hr by agar streak dilution method
Aspergillus fumigatus [11] = test: Antifungal activity against Aspergillus fumigatus after 48 hr by agar streak dilution method
Pseudomonas aeruginosa [12] = test: Antibacterial activity against Pseudomonas aeruginosa at 100 ug/disk after 24 hr by paper disk diffusion method; settings: read-out: IZ
Bacillus subtilis [13] = test: Antibacterial activity against Bacillus subtilis after 24 hr by agar streak dilution method
Aspergillus niger [14] = test: Antifungal activity against Aspergillus niger after 48 hr by agar streak dilution method
Candida albicans [15] = test: Antifungal activity against Candida albicans after 48 hr by agar streak dilution method
Klebsiella pneumoniae [16] = test: Antibacterial activity against Klebsiella pneumoniae after 24 hr by agar streak dilution method
Escherichia coli [17] = test: Antibacterial activity against Escherichia coli after 24 hr by agar streak dilution method
Aspergillus clavatus [18] = test: Antifungal activity against Aspergillus clavatus at 100 ug/disc after 48 hr by paper disk diffusion method; settings: read-out: IZ
Escherichia coli [19] = test: Antibacterial activity against Escherichia coli at 100 ug/disk after 24 hr by paper disk diffusion method; settings: read-out: IZ
Aspergillus niger [20] = test: Antifungal activity against Aspergillus niger at 100 ug/disk after 48 hr by paper disk diffusion method; settings: read-out: IZ
Salmonella typhi [21] = test: Antibacterial activity against Salmonella enterica subsp. enterica serovar Typhi after 24 hr by agar streak dilution method
Salmonella typhi [22] = test: Antibacterial activity against Salmonella enterica subsp. enterica serovar Typhi at 100 ug/disk after 24 hr by paper disk diffusion method; settings: read-out: IZ
Proteus vulgaris [23] = test: Antibacterial activity against Proteus vulgaris after 24 hr by agar streak dilution method
Klebsiella pneumoniae [24] = test: Antibacterial activity against Klebsiella pneumoniae at 100 ug/disk after 24 hr by paper disk diffusion method; settings: read-out: IZ

Row | Compound | zone of inhibition at 100 µg/disc (Proteus vulgaris [1]) [mm] | zone of inhibition at 100 µg/disc (Aspergillus fumigatus [2]) [mm] | MIC (Aspergillus clavatus [3]) [µg/mL] | zone of inhibition at 100 µg/disc (Staphylococcus aureus [4]) [mm] | MIC (Staphylococcus aureus [5]) [µg/mL] | zone of inhibition at 100 µg/disc (Bacillus subtilis [6]) [mm] | zone of inhibition at 100 µg/disc (Shigella flexneri [7]) [mm] | MIC (Shigella flexneri [8]) [µg/mL] | zone of inhibition at 100 µg/disc (Candida albicans [9]) [mm] | MIC (Pseudomonas aeruginosa [10]) [µg/mL] | MIC (Aspergillus fumigatus [11]) [µg/mL] | zone of inhibition at 100 µg/disc (Pseudomonas aeruginosa [12]) [mm] | MIC (Bacillus subtilis [13]) [µg/mL] | MIC (Aspergillus niger [14]) [µg/mL] | MIC (Candida albicans [15]) [µg/mL] | MIC (Klebsiella pneumoniae [16]) [µg/mL] | zone of inhibition at 100 µg/disc (Aspergillus clavatus [18]) [mm] | zone of inhibition at 100 µg/disc (Escherichia coli [19]) [mm] | zone of inhibition at 100 µg/disc (Aspergillus niger [20]) [mm] | MIC (Salmonella typhi [21]) [µg/mL] | further results
1 | Cc1cc(=O)oc2cc(Oc3nc(Nc4ccc(N5C(=O)C(CN6CCN(c7ccccn7)CC6)SC5c5ccc(O)cc5O)cc4)nc(N(C)C)n3)ccc12 (centres undefined) | 22 | 23 | 12.5 (≈ 16.2 µM) | 26 | 6.25 (≈ 8.08 µM) | 23 | 26 | 6.25 (≈ 8.08 µM) | 27 | 25 (≈ 32.3 µM) | 12.5 (≈ 16.2 µM) | 20 | 12.5 (≈ 16.2 µM) | 25 (≈ 32.3 µM) | 6.25 (≈ 8.08 µM) | 6.25 (≈ 8.08 µM) | 22 | 23 | 21 | 6.25 (≈ 8.08 µM) | MIC (Escherichia coli [17]): 12.5 µg/mL (≈ 16.2 µM); zone of inhibition at 100 µg/disc (Salmonella typhi [22]): 28 mm; MIC (Proteus vulgaris [23]): 25 µg/mL (≈ 32.3 µM); zone of inhibition at 100 µg/disc (Klebsiella pneumoniae [24]): 27 mm
2 | Cc1cc(=O)oc2cc(Oc3nc(Nc4ccc(N5C(=O)CSC5c5ccc([N+](=O)[O-])cc5)cc4)nc(N(C)C)n3)ccc12 (centres undefined) | < 10 | 13 | 100 (≈ 163 µM) | 13 | 100 (≈ 163 µM) | 11 | 11 | 100 (≈ 163 µM) | < 10 | 100 (≈ 163 µM) | 100 (≈ 163 µM) | 11 | 100 (≈ 163 µM) | 100 (≈ 163 µM) | 100 (≈ 163 µM) | 100 (≈ 163 µM) | 17 | 13 | 12 | 100 (≈ 163 µM) | MIC (Escherichia coli [17]): 100 µg/mL (≈ 163 µM); zone of inhibition at 100 µg/disc (Salmonella typhi [22]): 16 mm; MIC (Proteus vulgaris [23]): 100 µg/mL (≈ 163 µM); zone of inhibition at 100 µg/disc (Klebsiella pneumoniae [24]): 12 mm
3 | Cc1cc(=O)oc2cc(Oc3nc(Nc4ccc(N5C(=O)CSC5c5cccc(F)c5)cc4)nc(N(C)C)n3)ccc12 (centres undefined) | 17 | 17 | 25 (≈ 42.8 µM) | 17 | 50 (≈ 85.5 µM) | 19 | 22 | 25 (≈ 42.8 µM) | 18 | 50 (≈ 85.5 µM) | 50 (≈ 85.5 µM) | 19 | 50 (≈ 85.5 µM) | 25 (≈ 42.8 µM) | 50 (≈ 85.5 µM) | 50 (≈ 85.5 µM) | 21 | 23 | 20 | 25 (≈ 42.8 µM) | MIC (Escherichia coli [17]): 25 µg/mL (≈ 42.8 µM); zone of inhibition at 100 µg/disc (Salmonella typhi [22]): 20 mm; MIC (Proteus vulgaris [23]): 50 µg/mL (≈ 85.5 µM); zone of inhibition at 100 µg/disc (Klebsiella pneumoniae [24]): 18 mm
4 | Cc1cc(=O)oc2cc(Oc3nc(Nc4ccc(/N=C/c5ccc(Cl)cc5Cl)cc4)nc(N(C)C)n3)ccc12 | 16 | 13 | 50 (≈ 89.1 µM) | 14 | 100 (≈ 178 µM) | 17 | 14 | 100 (≈ 178 µM) | 12 | 100 (≈ 178 µM) | 100 (≈ 178 µM) | 12 | 50 (≈ 89.1 µM) | 100 (≈ 178 µM) | 100 (≈ 178 µM) | 50 (≈ 89.1 µM) | 17 | 13 | 11 | 100 (≈ 178 µM) | MIC (Escherichia coli [17]): 100 µg/mL (≈ 178 µM); zone of inhibition at 100 µg/disc (Salmonella typhi [22]): 14 mm; MIC (Proteus vulgaris [23]): 50 µg/mL (≈ 89.1 µM); zone of inhibition at 100 µg/disc (Klebsiella pneumoniae [24]): 17 mm
5 | O=C(O)c1cn(C2CC2)c2cc(N3CCNCC3)c(F)cc2c1=O [CIPROFLOXACIN] | 31 | – | – | 30 | 1 (≈ 3.02 µM) | 31 | 32 | ≤ 3 | – | 1 (≈ 3.02 µM) | – | 33 | 1 (≈ 3.02 µM) | – | – | 1 (≈ 3.02 µM) | – | 32 | – | 1 (≈ 3.02 µM) | zone of inhibition at 100 µg/disc (Salmonella typhi [22]): 30 mm; MIC (Proteus vulgaris [23]): 1 µg/mL (≈ 3.02 µM); zone of inhibition at 100 µg/disc (Klebsiella pneumoniae [24]): 33 mm
6 | CC(=O)N1CCN(c2ccc(OCC3COC(Cn4ccnc4)(c4ccc(Cl)cc4Cl)O3)cc2)CC1 (centres undefined) [KETOCONAZOLE] | – | 29 | 1 (≈ 1.88 µM) | – | – | – | – | – | 33 | – | 1 (≈ 1.88 µM) | – | – | ≤ 3 | 1 (≈ 1.88 µM) | – | 31 | – | 30 | – | –
